Legend:
Type in all cases: in vivo
[1] = test system: barnyardgrass (Echinochloa crus-galli); assay: Test A postemergence, barnyardgrass; settings: 0 to 100 scale (0 no effect, 100 complete control), approx. 10 d
Text: (§1) Seeds of plant species selected from barnyardgrass (Echinochloa crus-galli), kochia (Kochia scoparia), ragweed (common ragweed, Ambrosia elatior), ryegrass, Italian (Italian ryegrass, Lolium multiflorum), foxtail, green (green foxtail, Setaria viridis), and pigweed (Amaranthus retroflexus) were planted into a blend of loam soil and sand and treated preemergence with a directed soil spray using test chemicals formulated in a non-phytotoxic solvent mixture which included a surfactant. At the same time, plants selected from these weed species and also wheat (Triticum aestivum), corn (Zea mays), blackgrass (Alopecurus myosuroides), and galium (catchweed bedstraw, Galium aparine) were planted in pots containing the same blend of loam soil and sand and treated with postemergence applications of test chemicals formulated in the same manner. Plants ranged in height from 2 to 10 cm and were in the one- to two-leaf stage for the postemergence treatment. Treated plants and untreated controls were maintained in a greenhouse for approximately 10 d, after which time all treated plants were compared to untreated controls and visually evaluated for injury. Plant response ratings, summarized in Table A, are based on a 0 to 100 scale where 0 is no effect and 100 is complete control. A dash (-) response means no test result.

kochia (Kochia scoparia) [2] = assay: Test A postemergence, kochia; settings: 0 to 100 scale (0 no effect, 100 complete control), approx. 10 d
Text: as §1

[3] = test system: ragweed (common ragweed, Ambrosia elatior); assay: Test A postemergence, ragweed; settings: 0 to 100 scale (0 no effect, 100 complete control), approx. 10 d
Text: as §1

[4] = test system: ryegrass, Italian (Italian ryegrass, Lolium multiflorum); assay: Test A postemergence, Italian ryegrass; settings: 0 to 100 scale (0 no effect, 100 complete control), approx. 10 d
Text: as §1

[5] = test system: foxtail, green (green foxtail, Setaria viridis); assay: Test A postemergence, green foxtail; settings: 0 to 100 scale (0 no effect, 100 complete control), approx. 10 d
Text: as §1

[6] = test system: pigweed (Amaranthus retroflexus); assay: Test A postemergence, pigweed; settings: 0 to 100 scale (0 no effect, 100 complete control), approx. 10 d
Text: as §1

[7] = test system: wheat (Triticum aestivum); assay: Test A postemergence, wheat; settings: 0 to 100 scale (0 no effect, 100 complete control), approx. 10 d
Text: as §1

corn (Zea mays) = assay: Test A postemergence, corn; settings: 0 to 100 scale (0 no effect, 100 complete control), approx. 10 d
Text: as §1

[8] = test system: blackgrass (Alopecurus myosuroides); assay: Test A postemergence, blackgrass; settings: 0 to 100 scale (0 no effect, 100 complete control), approx. 10 d
Text: as §1

[9] = test system: galium (catchweed bedstraw, Galium aparine); assay: Test A postemergence, galium; settings: 0 to 100 scale (0 no effect, 100 complete control), approx. 10 d
Text: as §1

[10] = test system: barnyardgrass (Echinochloa crus-galli); assay: Test A preemergence, barnyardgrass; settings: 0 to 100 scale (0 no effect, 100 complete control), approx. 10 d
Text: as §1

kochia (Kochia scoparia) [11] = assay: Test A preemergence, kochia; settings: 0 to 100 scale (0 no effect, 100 complete control), approx. 10 d
Text: as §1

[12] = test system: ragweed (common ragweed, Ambrosia elatior); assay: Test A preemergence, ragweed; settings: 0 to 100 scale (0 no effect, 100 complete control), approx. 10 d
Text: as §1

[13] = test system: ryegrass, Italian (Italian ryegrass, Lolium multiflorum); assay: Test A preemergence, Italian ryegrass; settings: 0 to 100 scale (0 no effect, 100 complete control), approx. 10 d
Text: as §1

[14] = test system: foxtail, green (green foxtail, Setaria viridis); assay: Test A preemergence, green foxtail; settings: 0 to 100 scale (0 no effect, 100 complete control), approx. 10 d
Text: as §1

[15] = test system: pigweed (Amaranthus retroflexus); assay: Test A preemergence, pigweed; settings: 0 to 100 scale (0 no effect, 100 complete control), approx. 10 d
Text: as §1

[16] = test system: barnyardgrass (Echinochloa crus-galli); assay: Test B flooded paddy test, barnyardgrass; settings: Flood, 250 g ai/ha; applied to paddy water at 2-leaf stage; visual rating after 13 to 15 d; scale 0 to 100, 0 is no effect, 100 is complete control
Protocol: (§2) Plant species in the flooded paddy test selected from rice (Oryza sativa), sedge, umbrella (small-flower umbrella sedge, Cyperus difformis), ducksalad (Heteranthera limosa), and barnyardgrass (Echinochloa crus-galli) were grown to the 2-leaf stage for testing. At time of treatment, test pots were flooded to 3 cm above the soil surface, treated by application of test compounds directly to the paddy water, and then maintained at that water depth for the duration of the test. Treated plants and controls were maintained in a greenhouse for 13 to 15 d, after which time all species were compared to controls and visually evaluated. Plant response ratings, summarized in Table B, are based on a scale of 0 to 100 where 0 is no effect and 100 is complete control. A dash (-) response means no test result.

[17] = test system: ducksalad (Heteranthera limosa); assay: Test B flooded paddy test, ducksalad; settings: Flood, 250 g ai/ha; applied to paddy water at 2-leaf stage; visual rating after 13 to 15 d; scale 0 to 100, 0 is no effect, 100 is complete control
Protocol: as §2

rice (Oryza sativa) = assay: Test B flooded paddy test, rice; settings: Flood, 250 g ai/ha; applied to paddy water at 2-leaf stage; visual rating after 13 to 15 d; scale 0 to 100, 0 is no effect, 100 is complete control
Protocol: as §2

[18] = test system: sedge, umbrella (small-flower umbrella sedge, Cyperus difformis); assay: Test B flooded paddy test, umbrella sedge; settings: Flood, 250 g ai/ha; applied to paddy water at 2-leaf stage; visual rating after 13 to 15 d; scale 0 to 100, 0 is no effect, 100 is complete control
Protocol: as §2

Compound | Plant response rating, Barnyardgrass ([1]; 31 g ai/ha) | Plant response rating, Barnyardgrass ([1]; 125 g ai/ha) | Plant response rating, Kochia (kochia (Kochia scoparia) [2]; 31 g ai/ha) | Plant response rating, Kochia (kochia (Kochia scoparia) [2]; 125 g ai/ha) | Plant response rating, Ragweed ([3]; 31 g ai/ha) | Plant response rating, Ragweed ([3]; 125 g ai/ha) | Plant response rating, Ryegrass, Italian ([4]; 31 g ai/ha) | Plant response rating, Ryegrass, Italian ([4]; 125 g ai/ha) | Plant response rating, Foxtail, Green ([5]; 31 g ai/ha) | Plant response rating, Foxtail, Green ([5]; 125 g ai/ha) | Plant response rating, Pigweed ([6]; 31 g ai/ha) | Plant response rating, Pigweed ([6]; 125 g ai/ha) | Plant response rating, Wheat ([7]; 31 g ai/ha) | Plant response rating, Wheat ([7]; 125 g ai/ha) | Plant response rating, Corn (corn (Zea mays); 31 g ai/ha) | Plant response rating, Corn (corn (Zea mays); 125 g ai/ha) | Plant response rating, Blackgrass ([8]; 31 g ai/ha) | Plant response rating, Blackgrass ([8]; 125 g ai/ha) | Plant response rating, Galium ([9]; 31 g ai/ha) | Plant response rating, Galium ([9]; 125 g ai/ha) | further results
CCNC(=O)C1(C(=O)Nc2cccc(F)c2F)C(=O)N(C)CC1c1ccc(C(F)(F)F)cc1 (stereo not drawn) [Compound 7] | 0 | 10 | 0 | 0 | 0 | 0 | 0 | 10 | 0 | 20 | 10 | 30 | 0 | 0 | 0 | 0 | 0 | 0 | 0 | 30 | Plant response rating, Barnyardgrass ([10]; 31 g ai/ha): 0; Plant response rating, Barnyardgrass ([10]; 125 g ai/ha): 70; Plant response rating, Kochia (kochia (Kochia scoparia) [11]; 31 g ai/ha): 0; Plant response rating, Kochia (kochia (Kochia scoparia) [11]; 125 g ai/ha): 0; Plant response rating, Ragweed ([12]; 31 g ai/ha): 0; Plant response rating, Ragweed ([12]; 125 g ai/ha): 0; Plant response rating, Ryegrass, Italian ([13]; 31 g ai/ha): 0; Plant response rating, Ryegrass, Italian ([13]; 125 g ai/ha): 0; Plant response rating, Foxtail, Green ([14]; 31 g ai/ha): 0; Plant response rating, Foxtail, Green ([14]; 125 g ai/ha): 80; Plant response rating, Pigweed ([15]; 31 g ai/ha): 0; Plant response rating, Pigweed ([15]; 125 g ai/ha): 10; Plant response rating, Barnyardgrass [16]: 0; Plant response rating, Ducksalad [17]: 75; Plant response rating, Rice (rice (Oryza sativa)): 30; Plant response rating, Sedge, Umbrella [18]: 0
CC(C)NC(=O)C1(C(=O)Nc2cccc(F)c2F)C(=O)N(C)CC1c1ccc(C(F)(F)F)cc1 (stereo not drawn) [Compound 8] | 0 | 0 | 0 | 0 | 0 | 0 | 0 | 0 | 0 | 0 | 0 | 0 | 0 | 0 | 0 | 0 | 0 | 0 | 0 | 0 | Plant response rating, Barnyardgrass ([10]; 31 g ai/ha): 0; Plant response rating, Barnyardgrass ([10]; 125 g ai/ha): 0; Plant response rating, Kochia (kochia (Kochia scoparia) [11]; 31 g ai/ha): 0; Plant response rating, Kochia (kochia (Kochia scoparia) [11]; 125 g ai/ha): 0; Plant response rating, Ragweed ([12]; 31 g ai/ha): 0; Plant response rating, Ragweed ([12]; 125 g ai/ha): 0; Plant response rating, Ryegrass, Italian ([13]; 31 g ai/ha): 0; Plant response rating, Ryegrass, Italian ([13]; 125 g ai/ha): 0; Plant response rating, Foxtail, Green ([14]; 31 g ai/ha): 0; Plant response rating, Foxtail, Green ([14]; 125 g ai/ha): 0; Plant response rating, Pigweed ([15]; 31 g ai/ha): 0; Plant response rating, Pigweed ([15]; 125 g ai/ha): 0; Plant response rating, Barnyardgrass [16]: 0; Plant response rating, Ducksalad [17]: 0; Plant response rating, Rice (rice (Oryza sativa)): 0; Plant response rating, Sedge, Umbrella [18]: 0

From patent US11019818B2, “Herbicidal 3-substituted lactams” (FMC Corporation, priority 2017, dated 2021)
